In patent publication US20170165374A1, “COMPOSITIONS AND METHODS FOR TREATING BACTERIAL INFECTIONS” (Insmed, Inc., priority 2015, published 2017):
Where a name gives a salt, the structure may show the parent alone.

Experiments:
Assay type in all cases: cell-based
[1] = system: M. abscessus clinical isolate Stanford A; experiment: Intracellular CFU in M. abscessus infected THP-1 cells (THP-1 NTM model), Stanford A
Method: (§1) THP-1 cells were seeded in PMA and cultured for 48 hours, exposed to M. abscessus (type strain 19977 or clinical isolate Stanford A or NIH26) at multiplicity of infection (MOI) of approx. 2 for 1 hour followed by incubation with […] amikacin sulfate for 23 hours to reduce the extracellular NTM population. Liposomal amikacin formulations were added at 16, 32, 64, and 128 μg/mL of active concentration and incubated for 24 hours at 37° C. At the end of four 24 hour treatment cycles, cells were washed, lysed, serially diluted, plated, and incubated at 37° C. for 4 days to determine final intracellular CFU counts. Formulations were loaded with streptomycin and tested against the M. abscessus strains 19977 and Stanford A. Results are shown in Table 8.

[2] = system: M. abscessus clinical isolate NIH26; experiment: Intracellular CFU in M. abscessus infected THP-1 cells (THP-1 NTM model), NIH26; conditions: NIH 26, 128 μg/mL amikacin
Method: as §1, with “counts.” for “counts. Formulations were loaded with streptomycin and tested against the M. abscessus strains 19977 and Stanford A. Results are shown in Table 8.”

[3] = system: M. abscessus type strain 19977; experiment: Intracellular CFU in M. abscessus infected THP-1 cells (THP-1 NTM model), strain 19977
Method: as §1

[4] = 128 μg/mL amikacin, vs pretreatment
[5] = 128 μg/mL streptomycin sulfate, vs pretreatment

NCC[C@H](O)C(=O)N[C@@H]1C[C@H](N)[C@@H](O[C@H]2O[C@H](CN)[C@@H](O)[C@H](O)[C@H]2O)[C@H](O)[C@H]1O[C@H]1O[C@H](CO)[C@@H](O)[C@H](N)[C@H]1O [free ami, amikacin]
In vitro killing (CFU remaining after 96 h treatment with 128 μg/mL ami-in THP-1 NTM model) ([1]; 128 μg/mL amikacin): 135000 CFU
In vitro killing (additional % CFU killed compared to pretreatment after 96 h treatment with 128 μg/mL ami in THP-1 NTM model) [1, 4]: 75%
In vitro killing (CFU remaining after 96 h treatment with 128 μg/mL ami-in THP-1 NTM model) [2]: 214667 CFU
In vitro killing (additional % CFU killed compared to pretreatment after 96 h treatment with 128 μg/mL ami in THP-1 NTM model) ([2]; vs pretreatment): 37.4%
In vitro killing (CFU remaining after 96 h treatment with 128 μg/mL ami-in THP-1 NTM model) ([3]; 128 μg/mL amikacin): 135000 CFU
In vitro killing (additional % CFU killed compared to pretreatment after 96 h treatment with 128 μg/mL ami in THP-1 NTM model) [3, 4]: 50.1%

[H]/N=C(/N)N[C@H]1[C@H](O)[C@@H](O)[C@H](O[C@@H]2O[C@@H](C)[C@](O)(C=O)[C@H]2O[C@@H]2O[C@@H](CO)[C@H](O)[C@@H](O)[C@@H]2NC)[C@@H](N/C(N)=N\[H])[C@@H]1O [free streptomycin sulfate, streptomycin sulfate]
In vitro killing (CFU remaining after 96 h treatment with 128 μg/mL streptomycin sulfate in THP-1 NTM model) ([1]; 128 μg/mL streptomycin sulfate): 424000 CFU
In vitro killing (addtl. % CFU killed compared to pretreatment after 96 h treatment with 128 μg/mL streptomycin sulfate in THP-1 NTM model) [1, 5]: 27.4%
In vitro killing (CFU remaining after 96 h treatment with 128 μg/mL streptomycin sulfate in THP-1 NTM model) ([3]; 128 μg/mL streptomycin sulfate): 408000 CFU
In vitro killing (addtl. % CFU killed compared to pretreatment after 96 h treatment with 128 μg/mL streptomycin sulfate in THP-1 NTM model) [3, 5]: 35.8%
